Test results as given in paper PMC9016773 (Journal of chemical information and modeling, 2022).
Entries after “also recorded” stand apart in the source; their conditions may differ.

Experiments:
[1] = system: actin filaments underlying the plasma membrane (cortex actin); details: inhibits HSPG-mediated endocytosis; cited from earlier work
[2] = system: SARS-CoV-2 pseudotyped particles; type: cell-based; details: read-out: IC50, anti-pseudotyped particle activity
[3] = system: cortex actin filaments in U2OS cells; type: cell-based
[4] = system: HSPG-mediated endocytosis of α-Synuclein fibrils in HEK293T cells; assay: α-Synuclein fibrils uptake assay; type: cell-based; details: among the top 10 inhibitors
SARS-CoV-2 = details: among drugs of the repurposing screen; cited from earlier work

Row | SMILES | Disruption of actin filaments underlying the plasma membrane (cortex actin) [1] | Inhibition of the entry of pHrodo-labeled α-Synuclein fibrils (ranking in words) [4] | other results
1 | O=C1/C(=C/c2ccccc2)C[C@@]2(O)[C@H]3Cc4ccc(O)c5c4[C@@]2(CCN3CC2CC2)[C@H]1O5 [BNTX] | effectively disrupt the actin filaments | – | –
2 | CC(C)S(=O)(=O)c1oc(-c2ccc(F)cc2)nc1S(=O)(=O)c1ccccc1 [NCGC00115755-02] | – | – | IC50 [2]: 5 µM; Effect on actin filaments (phalloidin-Alexa488 staining) [3]: dose-dependent disruption of cortex actin filaments; also recorded: causes the disassembly of actin stress fiber and generates large actin aggregates
3 | O=C(Oc1cccc2cccnc12)c1ccccc1 [NCGC00159478] | – | highest inhibition | –
4 | CN(C)CCNC(=O)c1nc(-c2ccc(N3CCN(C)CC3)cc2)cc2c1ccn2C [NCGC00411718] | – | highest inhibition | –
5 | CCN(CC)CCNC(=O)c1c(C)[nH]c(/C=C2\C(=O)Nc3ccc(F)cc32)c1C [Sunitinib] | effectively disrupt the actin filaments | – | –
6 | O=C1c2c(O)ccc(O)c2C(=O)c2c(NCCNCCO)ccc(NCCNCCO)c21 [mitoxantrone] | – | – | Antiviral activity in vitro (in words) (SARS-CoV-2): most potent antiviral activity in vitro
